Data published in ChEMBL document CHEMBL1151699, “Synthesis and biological evaluation of guanylhydrazone coactivator binding inhibitors for the estrogen receptor” (Bioorg Med Chem, 2008).
Active and inactive are the calls of the source. The calls are words filed in the database; no cut-off is given here.

Key:
[1] = target: Estrogen receptor alpha (Homo sapiens) (UniProt P03372); assay: Antagonist activity at estrogen receptor alpha expressed in human HEC1 cells assessed as inhibition of estradiol-induced transcriptional activity at 20 uM after 24 hrs by beta-galactosidase reporter gene assay; parameters: scale not given: the % may be the effect or the level left; details: HEC-1
[2] = target: Estrogen receptor alpha (Homo sapiens) (UniProt P03372); assay: Inhibition of estradiol-induced coactivator peptide SRC1 binding to estrogen receptor alpha expressed in human HEC1 cells at 20 uM after 24 hrs by beta-galactosidase based mammalian two-hybrid assay; parameters: scale not given: the % may be the effect or the level left; details: HEC-1
Estrogen receptor [3] = target: T1, Estrogen receptor (Homo sapiens, UniProt P03372); assay: Inhibition of estradiol-induced coactivator peptide SRC1 binding to estrogen receptor alpha expressed in human HEC1 cells after 24 hrs by luciferase based mammalian two-hybrid assay; format: cell-based, HEC-1
T1 sequence (P03372 whole entry): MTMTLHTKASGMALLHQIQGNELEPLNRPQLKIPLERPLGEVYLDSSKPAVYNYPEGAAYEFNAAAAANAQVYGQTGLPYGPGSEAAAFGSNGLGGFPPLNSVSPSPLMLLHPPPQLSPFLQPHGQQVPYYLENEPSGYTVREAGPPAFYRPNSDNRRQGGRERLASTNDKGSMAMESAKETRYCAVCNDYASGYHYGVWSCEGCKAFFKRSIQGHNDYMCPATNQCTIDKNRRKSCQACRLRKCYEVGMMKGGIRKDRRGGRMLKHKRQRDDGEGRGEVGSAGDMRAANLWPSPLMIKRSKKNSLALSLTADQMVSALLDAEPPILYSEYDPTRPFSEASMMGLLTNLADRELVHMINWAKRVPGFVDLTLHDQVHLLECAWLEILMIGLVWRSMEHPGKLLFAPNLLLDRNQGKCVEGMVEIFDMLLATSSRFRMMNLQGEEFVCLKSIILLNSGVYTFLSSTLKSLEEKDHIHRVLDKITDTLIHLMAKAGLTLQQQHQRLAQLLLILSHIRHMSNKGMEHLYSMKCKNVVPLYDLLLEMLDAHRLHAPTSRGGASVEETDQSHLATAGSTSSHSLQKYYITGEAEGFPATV

Estrogen receptor [4] = target: T1, Estrogen receptor; assay: Inhibition of estradiol-induced coactivator peptide SRC binding to recombinant estrogen receptor by fluorescence polarization assay
[5] = target: Estrogen receptor alpha (Homo sapiens) (UniProt P03372); assay: Covalent binding affinity to estrogen receptor alpha assessed as change in molecular weight after 30 mins by electrospray ionization mass spectrometry

Compound | Activity [1] [%] | Activity [2] [%] | IC50 (Estrogen receptor [3]) [µM] | IC50 (Estrogen receptor [4]) [µM] | Activity [5]
N=C(N)N/N=C/c1cccc2ccccc12 | 50 | 50 | 11.5 |  | 
COC1=C(/C=N/NC(=N)N)CCc2ccccc21 | 50 | 50 | ≥ 50 |  | 
N=C(N)N/N=C/C1=C(Cl)c2ccccc2C1 | 50 | 50 | 6.8 |  | 
N=C(N)N/N=C/C1=C(C(F)(F)F)c2ccccc2CC1 | 50 | 50 |  |  | 
COc1ccc2c(c1)CCC(/C=N/NC(=N)N)=C2Cl | 50 | 50 | 2.1 |  | 
N=C(N)N/N=C/C1=C(Cl)c2ccccc2CC1 | 50 | 50 | 3.6 | 11 | inactive
CC(/C=N/NC(=N)N)=C(/Cl)c1ccccc1 | 50 | 50 | 2.6 | 37 | 
N=C(N)N/N=C/C=C(\Cl)c1cccc2ccccc12 | 50 | 50 | ≥ 50 |  | 
Cc1cc(C)c2c(c1)C(Cl)=C(/C=N/NC(=N)N)CC2 | 50 | 50 | 2.5 |  | 
N=C(N)N/N=C/C1=C(Oc2ccccc2)c2ccccc2CC1 | 50 | 50 | 5.9 |  | 
N=C(N)N/N=C/c1ccc2ccccc2c1 | 50 | 50 | 11.3 |  | 
C/C(=N\NC(=N)N)C1=C(Cl)c2ccccc2CC1 | 50 | 50 |  |  | 
N=C(N)N/N=C/C1=C(Cl)c2ccccc2CCC1 | 50 | 50 | 4 | 16 | 
CC1CC(/C=N/NC(=N)N)=C(Cl)c2ccccc21 (stereo not given) | 50 | 50 | 9.4 |  | 
N=C(N)N/N=C/C=C(\Cl)c1ccccc1 | 50 | 50 | 4.6 |  | 
N=C(N)N/N=C/C1=C(Br)c2ccccc2CC1 | 50 | 50 | 4.9 |  | 
